The numbers were not newly measured in paper PMC9239115 (Amino acids, 2017), which cites them from elsewhere.

The test system of one series is C6 glioma cell lines. To be noted: up to 200 μM; ref Pes 2013.
For series [1] the following is noted: degraded in the circulation by ACE; ref Rodgers et al. 2006.

As for `NC[C@H]1C[C@@H](C(=O)O)C1` [ACCA, cis-3-(Aminomethyl)cyclobutanecarboxylic acid], in the series with C6 glioma cell lines, the “Toxicity on C6 glioma cell lines” value was “did not show any toxicity”.
On to `CC[C@H](C)[C@H](NC(=O)[C@H](Cc1ccc(O)cc1)NC(=O)[C@@H](NC(=O)[C@H](CCCNC(=N)N)NC(=O)[C@@H](N)CC(=O)O)C(C)C)C(=O)N[C@@H](Cc1c[nH]cn1)C(=O)N1CCC[C@H]1C(=O)O` [Ang-(1–7), Angiotensin-(1–7)], for which, in series [1], the “Half-life in the circulation” value is on record as 29 min.
